# Test results: patent US6605628B1, “Method of using 5-(arysulfonyl)-, 5-(arylsulfanyl)-and 5-(arylsulfanyl)thiazolidine-2,4-diones for inhibition of farnesyl-protein transferase” (Wyeth Holdings Corporation, priority 2001, dated 2003)
# Key:
# FPTase [1] = biological target: T1, FPTase (Homo sapiens, UniProt P49354+P49356); assay: in vitro FTase Inhibition Assay, H-Ras used as substrate for farnesylation; assay type: biochemical; conditions: Table I, read-out: IC50 H-Ras*
# FPTase [2] = biological target: T1, FPTase; assay: in vitro FTase Inhibition Assay, K-Ras used as substrate for farnesylation; assay type: biochemical; conditions: Table I
melting point,IC50 (FPTase [1]) [nM],IC50 (FPTase [2]) [nM],Compound
54 to 56 °C,,,"COc1ccc(SC2(CCCCCCCCCC#Cc3ccc(Cl)cc3)SC(=O)NC2=O)cc1 (stereo not shown) [Example 94, 5-[11-(4-Chlorophenyl)undec-10-ynyl]-5-(4-methoxy-phenylsulfanyl)-thiazolidine-2,4-dione]"
145 to 148 °C,,,"COc1ccc(S(=O)(=O)C2(CCCCC#Cc3ccc(Cl)cc3)SC(=O)NC2=O)cc1 (stereo not shown) [Example 98, 5-[6-(4-Chlorophenyl)hex-5-ynyl]-5-(4-methoxyphenylsulfonyl)-thiazolidine-2,4-dione]"
133 to 135 °C,10 to 30,110 to 1000,"COc1ccc(S(=O)(=O)C2(CCCC#Cc3ccccc3Cl)SC(=O)NC2=O)cc1 (stereo not shown) [Example 101, 5-[5-(2-Chlorophenyl)pent-4-ynyl]-5-(4-methoxybenzenesulfonyl)thiazolidine-2,4-dione]"
134 to 136 °C,30 to 32,1400,"COc1ccc(S(=O)(=O)C2(CCCC#Cc3cccc(Cl)c3)SC(=O)NC2=O)cc1 (stereo not shown) [Example 102, 5-[5-(3-Chlorophenyl)pent-4-ynyl]-5-(4-methoxybenzenesulfonyl)thiazolidine-2,4-dione]"
176 to 177 °C,30 to 50,900 to 10000,"Cc1ccc(S(=O)(=O)C2(CCCC#Cc3ccc(Cl)cc3)SC(=O)NC2=O)cc1 (stereo not shown) [Example 103, 5-[5-(4-Chlorophenyl)pent-4-ynyl]-5-(p-tolylsulfonyl)thiazolidine-2,4-dione]"
157 to 159 °C,30 to 54,230 to 900,"O=C1NC(=O)C(CCCC#Cc2ccc(Cl)cc2)(S(=O)(=O)c2ccc(I)cc2)S1 (stereo not shown) [Example 104, 5-[5-(4-Chlorophenyl)pent-4-ynyl]-5-(4-iodobenzenesulfonyl)thiazolidine-2,4-dione]"
193 to 194 °C,230 to 250,1300 to 1700,"O=C1NC(=O)C(CCCC#Cc2ccc(Cl)cc2)(S(=O)(=O)c2ccc(Oc3ccccc3)cc2)S1 (stereo not shown) [Example 106, 5-[5-(4-Chlorophenyl)pent-4-ynyl]-5-(4-phenoxybenzenesulfonyl)-thiazolidine-2,4-dione]"
150 to 153 °C,180 to 200,620 to 700,"O=C1NC(=O)C(CCCC#Cc2ccc(Cl)cc2)(S(=O)(=O)c2ccc3ccccc3c2)S1 (stereo not shown) [Example 107, 5-[5-(4-Chlorophenyl)pent-4-ynyl]-5-(naphthalene-2-sulfonyl)thiazolidine-2,4-dione]"
232 °C (dec.),130 to 180,≥ 9000,"CC(=O)Nc1ccc(S(=O)(=O)C2(CCCC#Cc3ccc(Cl)cc3)SC(=O)NC2=O)cc1 (stereo not shown) [Example 108, N-(4-{5-[5-(4-Chlorophenyl)pent-4-ynyl]-2,4-dioxothiazolidine-5-sulfonyl}phenyl)acetamide]"
181 to 184 °C,110 to 150,300 to 550,"O=C1NC(=O)C(CCCC#Cc2ccc(Cl)cc2)(S(=O)(=O)c2ccc(OCc3ccccc3)cc2)S1 (stereo not shown) [Example 111, 5-(4-Benzyloxybenzenesulfonyl)-5-[5-(4-chlorophenyl)pent-4-ynyl]-thiazolidine-2,4-dione]"
172 to 174 °C,50 to 60,750 to 800,"O=C1NC(=O)C(CCCC#Cc2ccc(Cl)cc2)(S(=O)(=O)c2cccc3ccccc23)S1 (stereo not shown) [Example 113, 5-[5-(4-Chlorophenyl)pent-4-ynyl]-5-(naphthalene-1-sulfonyl)-thiazolidine-2,4-dione]"
179 to 180 °C (dec.),5 to 10,17 to 40,"O=C1NC(=O)C(CCCC#Cc2cc(Cl)ccc2Cl)(S(=O)(=O)c2ccc(Oc3ccncc3)cc2)S1 (stereo not shown) [Example 116, 5-[5-(2,5-Dichlorophenyl)pent-4-ynyl]-5-[4-(pyridin-4-yloxy)benzenesulfonyl]thiazolidine-2,4-dione]"
129 to 133 °C,20 to 30,510 to 1000,"COc1ccc(S(=O)(=O)C2(CCCC#Cc3ccc(Cl)cc3Cl)SC(=O)NC2=O)cc1 (stereo not shown) [Example 117, 5-[5-(2,4-Dichlorophenyl)pent-4-ynyl]-5-(4-methoxybenzenesulfonyl)-thiazolidine-2,4-dione]"
126 to 130 °C,70,1900,"COc1ccc(S(=O)(=O)C2(CCCC#Cc3cccc([N+](=O)[O-])c3)SC(=O)NC2=O)cc1 (stereo not shown) [Example 118, 5-(4-Methoxybenzenesulfonyl)-5-[5-(3-nitrophenyl)pent-4-ynyl]thiazolidine-2,4-dione]"
190 to 191 °C,130 to 140,1300 to 1700,"O=C1NC(=O)C(CCCC#Cc2cccc([N+](=O)[O-])c2)(S(=O)(=O)c2ccc(Oc3ccccc3)cc2)S1 (stereo not shown) [Example 119, 5-[5-(3-Nitrophenyl)pent-4-ynyl]-5-(4-phenoxybenzenesulfonyl)thiazolidine-2,4-dione]"
205 to 207 °C,18 to 32,530 to 1000,"O=C1NC(=O)C(CCCC#Cc2ccc([N+](=O)[O-])cc2)(S(=O)(=O)c2ccc(I)cc2)S1 (stereo not shown) [Example 120, 5-(4-Iodobenzenesulfonyl)-5-[5-(4-nitrophenyl)pent-4-ynyl]thiazolidine-2,4-dione]"
156 to 158 °C,120,1600,"COc1ccc(S(=O)(=O)C2(CCCC#Cc3ccc([N+](=O)[O-])cc3)SC(=O)NC2=O)cc1 (stereo not shown) [Example 121, 5-(4-Methoxybenzenesulfonyl)-5-[5-(4-nitrophenyl)pent-4-ynyl]thiazolidine-2,4-dione]"
203 to 204 °C,52 to 80,910 to 1300,Cc1ccc([N+](=O)[O-])cc1C#CCCCC1(S(=O)(=O)c2ccc(Oc3ccccc3)cc2)SC(=O)NC1=O (stereo not shown) [Example 124]
188 to 190 °C,30,400,"Cc1ccc([N+](=O)[O-])cc1C#CCCCC1(S(=O)(=O)c2ccc(I)cc2)SC(=O)NC1=O (stereo not shown) [Example 125, 5-(4-Iodobenzenesulfonyl)-5-[5-(2-methyl-5-nitrophenyl)pent-4-ynyl]-thiazolidine-2,4-dione]"
168 to 172 °C,90,1700,"Cc1ccc([N+](=O)[O-])cc1C#CCCCC1(S(=O)(=O)c2cccc3ccccc23)SC(=O)NC1=O (stereo not shown) [Example 126, 5-[5-(2-Methyl-5-nitrophenyl)-pent-4-ynyl]-5-(naphthalene-1-sulfonyl)-thiazolidine-2,4-dione]"
197 to 200 °C,120 to 140,1300 to 1500,"Cc1ccc([N+](=O)[O-])cc1C#CCCCC1(S(=O)(=O)c2ccc3ccccc3c2)SC(=O)NC1=O (stereo not shown) [Example 127, 5-[5-(2-Methyl-5-nitrophenyl)pent-4-ynyl]-5-(naphthalene-2-sulfonyl)-thiazolidine-2,4-dione]"
210 to 212 °C,100,600 to 790,"Cc1cc([N+](=O)[O-])ccc1C#CCCCC1(S(=O)(=O)c2ccc(Oc3ccccc3)cc2)SC(=O)NC1=O (stereo not shown) [Example 129, 5-[5-(2-Methyl-4-nitrophenyl)pent-4-ynyl]-5-(4-phenoxybenzenesulfonyl)-thiazolidine-2,4-dione]"
129 to 130 °C,14 to 850,430 to 680,"Cc1ccc(C)c(C#CCCCC2(S(=O)(=O)c3ccc(I)cc3)SC(=O)NC2=O)c1 (stereo not shown) [Example 134, 5-[5-(2,5-Dimethylphenyl)pent-4-ynyl]-5-(4-iodobenzenesulfonyl)-thiazolidine-2,4-dione]"
149 to 150 °C,20 to 32,1900 to 2100,"COc1ccc(S(=O)(=O)C2(CCCC#Cc3cc(C)ccc3C)SC(=O)NC2=O)cc1 (stereo not shown) [Example 135, 5-[5-(2,5-Dimethylphenyl)pent-4-ynyl]-5-(4-methoxybenzenesulfonyl)-thiazol idine-2 ,4-dione]"
155 to 156 °C,43 to 50,1000 to 1900,"COc1ccc(S(=O)(=O)C2(CCCC#Cc3ccc(C)cc3C)SC(=O)NC2=O)cc1 (stereo not shown) [Example 136, 5-[5-(2,4-Dimethylphenyl)pent-4-ynyl]-5-(4-methoxybenzenesulfonyl)-thiazolidine-2,4-dione]"
153 to 154 °C,21 to 400,37 to 800,"Cc1ccc(C#CCCCC2(S(=O)(=O)c3ccc(I)cc3)SC(=O)NC2=O)c(C)c1 (stereo not shown) [Example 137, 5-[5-(2,4-Dimethylphenyl)pent-4-ynyl]-5-(4-iodobenzenesulfonyl)-thiazolidine-2,4-dione]"
121 to 122 °C,23 to 32,300 to 420,"COc1ccc(S(=O)(=O)C2(CCCC#Cc3cc(Cl)ccc3C)SC(=O)NC2=O)cc1 (stereo not shown) [Example 138, 5-[5-(5-Chloro-2-methylphenyl)pent-4-ynyl]-5-(4-methoxybenzene-sulfonyl)-thiazolidine-2,4-dione]"
128 to 130 °C,,,"COC(=O)c1ccc(C#CCCCC2(S(=O)(=O)c3ccc(OC)cc3)SC(=O)NC2=O)c(C)c1 (stereo not shown) [Example 160, 4-{5-[5-(4-Methoxybenzenesulfonyl)-2,4-dioxothiazolidin-5-yl]pent-1-ynyl}-3-methylbenzoic Acid Methyl Ester]"
206 to 207 °C,900,,"COc1ccc(S(=O)(=O)C2(CCCC#Cc3ccc(-n4cccc4)cc3)SC(=O)NC2=O)cc1 (stereo not shown) [Example 161, 5-(4-Methoxybenzenesulfonyl)-5-[5-(4-pyrrol-1-yl-phenyl)pent-4-ynyl]-thiazolidine-2,4-dione]"
204 to 206 °C,1300,,"O=C1NC(=O)C(CCCC#Cc2ccc(-n3cccc3)cc2)(S(=O)(=O)c2ccc(OC(F)(F)F)cc2)S1 (stereo not shown) [Example 163, 5-[5-(4-Pyrrol-1-ylphenyl)pent-4-ynyl]-5-(4-trifluoromethoxybenzenesulfonyl)-thiazolidine-2,4-dione]"

Compound,melting point,IC50 (FPTase [1]) [nM],IC50 (FPTase [2]) [nM]
"CCCCOc1ccc(S(=O)(=O)C2(CCCC#Cc3ccc(Cl)cc3)SC(=O)NC2=O)cc1 (stereo not shown) [Example 112, 5-(4-Butoxybenzenesulfonyl)-5-[5-(4-chlorophenyl)-pent-4-ynyl]-thiazolidine-2,4-dione]",116 to 118 °C,590 to 600,1400 to 1500
